In PubChem BioAssay (NCI):
Several values for one entry are separate records, joined by “and”; a condition that tells them apart may be missing. Equal values may be shown once.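 Tested at 5 concentrations; 48 h exposure; 96-well plates; endpoints linearly interpolated, else capped at highest concentration. GI50: concentration for 50% inhibition of growth. TGI is the concentration that stops growth completely.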

What was measured:
Assay in all cases: NCI tumour cell line growth inhibition, 48 h
DMS 114 small cell lung = test system: DMS 114 small cell lung
IGROV1 ovarian = test system: IGROV1 ovarian
SK-MEL-28 melanoma = test system: SK-MEL-28 melanoma
RXF 393 renal = test system: RXF 393 renal
A498 renal = test system: A498 renal
LOX IMVI melanoma = test system: LOX IMVI melanoma
OVCAR-3 ovarian = test system: OVCAR-3 ovarian
LXFL 529 NSCLC = test system: LXFL 529 NSCLC
NCI-H23 lung = test system: NCI-H23 lung
SN12C renal = test system: SN12C renal
UO-31 renal = test system: UO-31 renal
TK-10 renal = test system: TK-10 renal
SW-620 colon = test system: SW-620 colon
XF 498 CNS = test system: XF 498 CNS
HOP-62 NSCLC = test system: HOP-62 NSCLC
M19-MEL melanoma = test system: M19-MEL melanoma
HT29 colon = test system: HT29 colon
KM20L2 colon = test system: KM20L2 colon
SNB-19 CNS = test system: SNB-19 CNS
K-562 leukemia = test system: K-562 leukemia
NCI-H522 lung = test system: NCI-H522 lung
SK-OV-3 ovarian = test system: SK-OV-3 ovarian
MOLT-4 leukemia = test system: MOLT-4 leukemia
SK-MEL-2 melanoma = test system: SK-MEL-2 melanoma
HOP-18 NSCLC = test system: HOP-18 NSCLC
SK-MEL-5 melanoma = test system: SK-MEL-5 melanoma
A549 NSCLC = test system: A549 NSCLC
OVCAR-8 ovarian = test system: OVCAR-8 ovarian
SNB-75 CNS = test system: SNB-75 CNS
HL-60(TB) leukemia = test system: HL-60(TB) leukemia
CCRF-CEM leukemia = test system: CCRF-CEM leukemia
U251 CNS = test system: U251 CNS
COLO 205 colon = test system: COLO 205 colon
OVCAR-5 ovarian = test system: OVCAR-5 ovarian
OVCAR-4 ovarian = test system: OVCAR-4 ovarian
UACC-257 melanoma = test system: UACC-257 melanoma
SR leukemia = test system: SR leukemia
DLD-1 colon = test system: DLD-1 colon
UACC-62 melanoma = test system: UACC-62 melanoma
786-0 renal = test system: 786-0 renal
HCT-15 colon = test system: HCT-15 colon
CAKI-1 renal = test system: CAKI-1 renal
HCT-116 colon = test system: HCT-116 colon
SF-295 CNS = test system: SF-295 CNS
SF-268 CNS = test system: SF-268 CNS
NCI-H226 lung = test system: NCI-H226 lung
SF-539 CNS = test system: SF-539 CNS
KM12 colon = test system: KM12 colon
M14 melanoma = test system: M14 melanoma
HCC-2998 colon = test system: HCC-2998 colon
HOP-92 NSCLC = test system: HOP-92 NSCLC
NCI-H460 lung = test system: NCI-H460 lung
ACHN renal = test system: ACHN renal
EKVX NSCLC = test system: EKVX NSCLC
RPMI-8226 leukemia = test system: RPMI-8226 leukemia
DMS 273 small cell lung = test system: DMS 273 small cell lung
SNB-78 CNS = test system: SNB-78 CNS
MALME-3M melanoma = test system: MALME-3M melanoma

`CN(C)CCN(C)CCC(=O)/C=C/c1ccccc1` showed a TGI (DMS 114 small cell lung) of over 66.3 µM, a TGI (IGROV1 ovarian) of over 68.2 µM and a TGI (SK-MEL-28 melanoma) of 43.6 µM. For the same compound, the TGI (RXF 393 renal) was 45.3 µM, the TGI (A498 renal) was over 100 µM and the TGI (LOX IMVI melanoma) was over 100 µM. For the same compound, the TGI (OVCAR-3 ovarian) was over 61.4 µM, the TGI (LXFL 529 NSCLC) was 32.6 µM and the TGI (NCI-H23 lung) was over 61.1 µM. The TGI (SN12C renal) was 48.5 µM, the TGI (UO-31 renal) was over 100 µM and the TGI (TK-10 renal) was over 63.9 µM. For the same compound, the TGI (SW-620 colon) was 37.7 µM, the TGI (XF 498 CNS) was 49.6 µM and the TGI (HOP-62 NSCLC) was over 100 µM. For the same compound, the TGI (M19-MEL melanoma) was 40.9 µM, the TGI (HT29 colon) was 41.2 µM and the TGI (KM20L2 colon) was over 100 µM. It also gave a TGI (SNB-19 CNS) of over 100 µM, a TGI (K-562 leukemia) of over 52.8 µM and a TGI (NCI-H522 lung) of 9.64 µM. For the same compound, the TGI (SK-OV-3 ovarian) was over 100 µM, the TGI (MOLT-4 leukemia) was 27.2 µM and the TGI (SK-MEL-2 melanoma) was over 74.6 µM. For the same compound, the TGI (HOP-18 NSCLC) was over 100 µM, the TGI (SK-MEL-5 melanoma) was over 62.1 µM and the TGI (A549 NSCLC) was over 100 µM. It also gave a TGI (OVCAR-8 ovarian) of 47.1 µM, a TGI (SNB-75 CNS) of over 60.8 µM and a TGI (HL-60(TB) leukemia) of 53.5 µM. It also gave a TGI (CCRF-CEM leukemia) of 23 µM, a TGI (U251 CNS) of over 100 µM and a TGI (COLO 205 colon) of 36 µM. It also gave a TGI (OVCAR-5 ovarian) of over 100 µM, a TGI (OVCAR-4 ovarian) of over 61.2 µM and a TGI (UACC-257 melanoma) of 51.4 µM. For the same compound, the TGI (SR leukemia) was 27.3 µM, the TGI (DLD-1 colon) was 39.9 µM and the TGI (UACC-62 melanoma) was 71.4 µM. It also gave a TGI (786-0 renal) of 29.9 µM, a TGI (HCT-15 colon) of 50.1 µM and a TGI (CAKI-1 renal) of 49.9 µM. The TGI (HCT-116 colon) was 31.4 µM, the TGI (SF-295 CNS) was over 58.4 µM and the TGI (SF-268 CNS) was over 94.5 µM. For the same compound, the TGI (NCI-H226 lung) was over 88.7 µM, the TGI (SF-539 CNS) was 39.6 µM and the TGI (KM12 colon) was 52.5 µM. For the same compound, the TGI (M14 melanoma) was 40.6 µM, the TGI (HCC-2998 colon) was over 69.6 µM and the TGI (HOP-92 NSCLC) was 56.9 µM. For the same compound, the TGI (NCI-H460 lung) was over 100 µM, the TGI (ACHN renal) was over 69.9 µM and the TGI (EKVX NSCLC) was over 93.8 µM. For the same compound, the TGI (RPMI-8226 leukemia) was 6.54 µM, the TGI (DMS 273 small cell lung) was 34 µM and the TGI (SNB-78 CNS) was over 77.6 µM. It also gave a TGI (MALME-3M melanoma) of 35.6 µM.

`COc1cc2c(c(OC)c1OC)-c1ccc(SC)c(=O)cc1C(CC(=O)Oc1ccc(F)cc1)C2` (stereo not given) was tested, and the GI50 (DMS 114 small cell lung) was 0.0325 µM, the GI50 (IGROV1 ovarian) was 0.293 µM and the TGI (IGROV1 ovarian) was 75 µM and > 100 µM. The TGI (SK-MEL-28 melanoma) was over 100 µM, the GI50 (RXF 393 renal) was 0.0426 µM and the GI50 (A498 renal) was 0.0432 µM. For the same compound, the GI50 (LOX IMVI melanoma) was 0.392 µM, the TGI (LOX IMVI melanoma) was 8.26 µM and 10.8 µM and the TGI (OVCAR-3 ovarian) was 0.608 µM. For the same compound, the GI50 (LXFL 529 NSCLC) was 0.507 µM, the GI50 (NCI-H23 lung) was 0.287 µM and the TGI (NCI-H23 lung) was 0.667 µM and 1.04 µM. The TGI (SN12C renal) was 20.2 µM and 7.79 µM, the GI50 (UO-31 renal) was 2.49 µM and the TGI (UO-31 renal) was 75 µM and > 100 µM. For the same compound, the GI50 (TK-10 renal) was 21.5 µM, the TGI (TK-10 renal) was 75 µM and > 100 µM and the GI50 (SW-620 colon) was 0.358 µM. For the same compound, the TGI (SW-620 colon) was 11.1 µM and > 100 µM, the GI50 (XF 498 CNS) was 0.442 µM and the TGI (XF 498 CNS) was 7.03 µM and 5.13 µM. The GI50 (HOP-62 NSCLC) was 0.41 µM, the TGI (HOP-62 NSCLC) was 54.6 µM and 49.6 µM and the GI50 (M19-MEL melanoma) was 0.338 µM. The TGI (M19-MEL melanoma) was 14.1 µM and 23.1 µM, the GI50 (HT29 colon) was 0.258 µM and the TGI (HT29 colon) was 0.392 µM and 0.675 µM. For the same compound, the GI50 (KM20L2 colon) was 0.189 µM, the TGI (KM20L2 colon) was 0.239 µM and 0.363 µM and the GI50 (SNB-19 CNS) was 0.96 µM. For the same compound, the TGI (SNB-19 CNS) was 75 µM and > 100 µM, the GI50 (K-562 leukemia) was 0.351 µM and the TGI (K-562 leukemia) was 75 µM and > 100 µM. The GI50 (NCI-H522 lung) was 0.217 µM, the TGI (NCI-H522 lung) was 0.31 µM and 0.61 µM and the GI50 (SK-OV-3 ovarian) was 0.04 µM. For the same compound, the TGI (SK-OV-3 ovarian) was 24.9 µM and 11.6 µM, the GI50 (MOLT-4 leukemia) was 0.518 µM and the TGI (MOLT-4 leukemia) was 27.7 µM and > 100 µM. For the same compound, the GI50 (SK-MEL-2 melanoma) was 0.449 µM, the TGI (SK-MEL-2 melanoma) was 0.91 µM and 4.17 µM and the GI50 (HOP-18 NSCLC) was over 100 µM. The TGI (HOP-18 NSCLC) was 75 µM and > 100 µM, the GI50 (SK-MEL-5 melanoma) was 0.293 µM and the TGI (SK-MEL-5 melanoma) was 1.1 µM and 3.38 µM. For the same compound, the GI50 (A549 NSCLC) was 0.391 µM, the GI50 (OVCAR-8 ovarian) was 0.28 µM and the TGI (HL-60(TB) leukemia) was 0.768 µM. For the same compound, the GI50 (CCRF-CEM leukemia) was 0.367 µM, the TGI (CCRF-CEM leukemia) was 27.5 µM and > 100 µM and the GI50 (U251 CNS) was 0.41 µM. For the same compound, the TGI (U251 CNS) was 1.41 µM and 2.35 µM, the GI50 (COLO 205 colon) was 0.307 µM and the TGI (COLO 205 colon) was 0.305 µM and 1.03 µM. The GI50 (OVCAR-5 ovarian) was 0.973 µM, the TGI (OVCAR-5 ovarian) was 75 µM and > 100 µM and the GI50 (OVCAR-4 ovarian) was 5.4 µM. The TGI (OVCAR-4 ovarian) was 75 µM and > 100 µM, the GI50 (UACC-257 melanoma) was 0.264 µM and the TGI (UACC-257 melanoma) was 75 µM and > 100 µM. The GI50 (SR leukemia) was 0.124 µM, the TGI (SR leukemia) was 3.14 µM and 24 µM and the TGI (DLD-1 colon) was 75 µM and 10.1 µM. The GI50 (UACC-62 melanoma) was 0.0509 µM, the TGI (UACC-62 melanoma) was 0.73 µM and 0.539 µM and the GI50 (786-0 renal) was 0.325 µM. The TGI (786-0 renal) was 75 µM and > 100 µM, the GI50 (HCT-15 colon) was 0.384 µM and the TGI (HCT-15 colon) was 0.989 µM and 2.86 µM. The GI50 (CAKI-1 renal) was 1.9 µM, the TGI (CAKI-1 renal) was 10 µM and > 100 µM and the GI50 (HCT-116 colon) was 0.323 µM. The TGI (HCT-116 colon) was 0.306 µM and 1.08 µM, the GI50 (SF-295 CNS) was 0.286 µM and the TGI (SF-295 CNS) was 75 µM and > 100 µM. For the same compound, the GI50 (SF-268 CNS) was 0.461 µM, the TGI (SF-268 CNS) was 75 µM and 15 µM and the GI50 (NCI-H226 lung) was 0.201 µM. For the same compound, the TGI (NCI-H226 lung) was 0.612 µM and 0.677 µM, the TGI (SF-539 CNS) was 0.656 µM and the TGI (KM12 colon) was 2.37 µM. For the same compound, the TGI (M14 melanoma) was 14.4 µM, the GI50 (HCC-2998 colon) was 0.161 µM and the TGI (HCC-2998 colon) was 0.325 µM and 0.46 µM. For the same compound, the GI50 (HOP-92 NSCLC) was 1.91 µM, the TGI (HOP-92 NSCLC) was 75 µM and 97.7 µM and the GI50 (NCI-H460 lung) was 0.346 µM. For the same compound, the TGI (NCI-H460 lung) was 1.83 µM and 1.14 µM, the GI50 (ACHN renal) was 0.587 µM and the TGI (ACHN renal) was 75 µM and > 100 µM. For the same compound, the GI50 (EKVX NSCLC) was 0.981 µM, the TGI (EKVX NSCLC) was 75 µM and > 100 µM and the TGI (RPMI-8226 leukemia) was 12.2 µM and 11 µM. The GI50 (DMS 273 small cell lung) was 0.262 µM, the GI50 (SNB-78 CNS) was 0.0891 µM and the TGI (SNB-78 CNS) was 75 µM and 73.6 µM. For the same compound, the TGI (MALME-3M melanoma) was 75 µM and > 100 µM.
